From patent publication US20100075899A1, “TARGETED PHOTODYNAMIC THERAPY AGENT” (TRUSTEES OF THE UNIVERSITY OF PENNSYLVANIA, priority 2006, published 2010)

What was measured:
KB cells (FR+) = experiment: Flow cytometry uptake (Pyro fluorescence), KB cells; assay type: cell-based, human
Procedure: (§1) Flow cytometry experiments. KB, HT 1080, and CHO cells were seeded in T25 flasks (each flask 10^6 cells) and grown for 1 day in complete MEM (KB cells and HT 1080 cells) or complete F12K (CHO cells) medium. […] The cells were detached by 0.25% Trypsin-EDTA, fixed by 1% formaldehyde (methanol free) in PBS, resuspended in 1 mL of PBS and immediately analyzed on a BD LSRII machine at the Flow Cytometry Laboratory, Abramson Cancer Center at the University of Pennsylvania focusing on Pyro fluorescence (exc. 633 nm, em. 695 nm).

HT 1080 cells (FR−) = experiment: Flow cytometry uptake (Pyro fluorescence), HT 1080 cells; assay type: cell-based, human
Procedure: as §1

CHO cells (FR−) = experiment: Flow cytometry uptake (Pyro fluorescence), CHO cells; assay type: cell-based, Chinese hamster
Procedure: as §1

[1] = assay type: physicochemical
Procedure: Pyro-[…] (PP) Pyro-[…]-Folate (PPF) were purified by HPLC (Waters 600 Controller with a 2996 Photodiode Array Detector). The eluents were A=0.1M TEAA (pH 7) and B=acetonitrile and the method used for all injections was 90% of A and 10% of B to 100% of B in 45 minutes with flow 1.5 mL/min on a Zorbax 300SB-C3 column The coupling reagents HBTU (O-(Benzotriazol-1-yl)-N,N,N′,N′-tetramethyluronium hexafluorophosphate) and HOBt (1-Hydroxybenzotriazole) were purchased from Fluka and ACROS respectively. MALDI-ToF was measured on an Applied Biosystems Voyager DE Mass Spectrometer and fluorescence was measured on a Perkin Elmer LS50B Luminescence Spectrometer. We acquired confocal images using a Leica TCS SP2 Confocal Microscope and Xenogen images at the Bioluminescence Molecular Imaging Core facility at UPenn on an IVIS Xenogen Imager. KB cells (human epidermal cancer cells; folate receptor positive), HT 1080 cells (human fibrosarcoma cells; folate receptor negative), and CHO (Chinese hamster ovary cells; folate receptor negative) were purchased from ATCC. […]

Substance: Pyro-K-Folate [PKF]
- uptake efficiency into KB cells relative to Pyro-GDEVDGSGK-Folate (KB cells (FR+)): 50%
- uptake efficiency PPF versus PKF in HT 1080 cells (HT 1080 cells (FR−)): with the same efficiency
- uptake efficiency PPF versus PKF in CHO cells (CHO cells (FR−)): with the same efficiency
- solubility in water compared with PPF [1]: less soluble in water
- hydrophobicity (HPLC) compared with PPF ([1]; HPLC): more hydrophobic
